Data on two compounds can be found in patent EP0464233A1, “Pharmaceutical combinations against malaria” (priority 1990, dated 1992).

Read-outs that look alike come from different tables or passages of the source.

The subject of the test is P. berghei NS (resistant to chlorquine). The test can be described thus: 4-day suppressive test (blood schizontocidal activity), chess-board / isobologram analysis. The class given is in vivo, Plasmodium berghei. Conditions: for ED50 / ED90: Plasmodium berghei, in Mus musculus, po; for group mean of parasitaemia as of control: male Swiss mice, D + 4, ± standard error; for parasitaemia: Arteether alone, male mouse, Table II (extended doses). On the procedure:
The evaluation of blood schizontocidal activities was carried out following the procedure described herein after using the Chloroquine-resistant strain of P. berghei (NS) strain. (Chawira A. N., et al. 1987, Trans, R. Soc. Trop. Med. Hyg. 81 : 554-558).
The methodology followed in the present study was adopted form "4- day suppressive test" (ref. Peters, W.; 1987, Chemotherapy and Drug Resistance in Malaria, Vol. 1, p 111). The experimental data has been analysed by Chess Board Method in the form of an isobologram, (Ref. Chawira A. N., and Warhurst D. C.; 1987, J. Trop. Med. Hyg. 90 : 1-8). ED₅₀ and ED₉₀ was determined using a log-probit method.
Host .. Swiss Mice (20-22 gms) Sex .. Male Parasit .. P. berghei NS (resistant to chlorquine) Route of Infection .. Intravenous Route of drug Administration .. per os
Artheether : A few drops of Kardi oil and Tween^R 80 were added to Arteether to make a paste, followed by 0.5 % Tylose^R (Carboxy methyl cellulose) solution. A homogenous suspension was prepared using a tissue homogenizer in Teflon^R coated glass tube. […] Mefloquine HCl : A solution was prepared in 0.5 % Tylose using a tissue homogenizer.
Drug was administered as follows: (+ 2 H, 24 H, 48 H, 72 H) Each day one dose for 4 days
Slides were drawn from individual mouse and stained with Giemsa on D + 4. The slides were examined under oil immersion lens and parasitaemia was recorded from 15 fields at random. The average of infected and uninfected erythrocytes was determined for each animal. Finally the average parasitaemia of the whole group was determined and considered as 100 % for comparison purposes with the treated group.
At least 5000 to 7500 erythrocytes were examined at random to determine the parasitaemia. In certain cases, where parasitaemia was extremely low 10000 to 15000 erythrocytes were examined.

Usually ED50 stands for the dose at which the effect has come halfway, by size or by number of responders. `C=C[C@H]1C[N@@]2CC[C@H]1C[C@H]2[C@H](O)c1ccnc2ccc(OC)cc12` [Quinine]: where the note is “read-out: ED50 of Quinine”, the ED50 was found to be 61 mg/kg. Moreover, where the note is “read-out: ED90 of Quinine”, the ED90 amounted to 110 mg/kg. For the same compound, the “group mean of parasitaemia as of control” value is, setting by setting: (Quinine 25 mg/kg X 4, p.o., no Arteether) 92 ± 2.36; (Quinine 37.5 mg/kg X 4, p.o., no Arteether) 85 ± 5.8; (Quinine 50 mg/kg X 4, p.o., no Arteether) 70 ± 11.8.
Compound `CCO[C@H]1O[C@@H]2O[C@@]3(C)CC[C@H]4[C@H](C)CC[C@@H]([C@H]1C)[C@@]24OO3` [Arteether] yielded an ED50 of 2.8 mg/kg and an ED90 of 5.2 mg/kg. For the same compound, the “group mean of parasitaemia as of control” value (Arteether 0.25 mg/kg X 4, p.o., no Quinine) was determined as 90 ± 13.9. Moreover, under “Arteether 0.5 mg/kg X 4, p.o., no Quinine”, the “group mean of parasitaemia as of control” value was determined as 87 ± 10.8. In addition, the “group mean of parasitaemia as of control” value (Arteether 1.0 mg/kg X 4, p.o., no Quinine) is on record as 84 ± 10.8. In addition, for the setting “Arteether 2.0 mg/kg X 4, p.o., no Quinine”, the “group mean of parasitaemia as of control” value was 77 ± 1.27. For the setting “Dose 2.0 mg/kg X 4”, this compound gave a parasitaemia of 82. The compound further registered a parasitaemia (Dose 3.0 mg/kg X 4) of 57. This compound displayed a parasitaemia (Dose 4.0 mg/kg X 4) of 25. This compound returned a parasitaemia (Dose 5.0 mg/kg X 4) of 12. Besides, the median effective dose (ED50) (read-out: ED50 of Arteether) worked out at 2.8 mg/kg. Also, under “read-out: ED90 of Arteether”, the ED90 was found to be 5.2 mg/kg.
